Experimental findings from ChEMBL document CHEMBL1201862, “PubChem BioAssay data set” (2004) are described below.

The structures appear in SMILES notation.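 In this assay, cells in 96-well plates receive the compound at five concentrations for 48 hours. Endpoints are linearly interpolated between the surrounding concentrations. GI50 is the concentration that inhibits growth by half.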 Active and inactive are the calls of the source. Rule as the data show it: active = GI50 up to about 1.1 µM and inactive = higher. Some results are limits rather than exact numbers.

Common to all, as to assay: growth of human tumour cells (NCI), 48 h
The test system of assay [1] is ACHN.
The test system of assay [2] is COLO 205.
For assay [3], the system named is DU-145.
The test system of assay [4] is HCT-116.
Assay [5] deals with HCT-15.
The test system of assay [6] is Hs-578T.
In assay [7] the test system is IGROV-1.
Assay [8] concerns KM12.
Assay [9] deals with MCF7.
For assay [10], the system named is MDA-MB-435.
Assay [11] deals with MDA-N.
Assay [12] concerns NCI-H23.
The test system of assay [13] is NCI-H460.
The test system of assay [14] is NCI-H522.
Assay [15] has as its system OVCAR-4.
Assay [16] concerns PC-3.
Assay [17] has as its system SK-MEL-5.
Assay [18] concerns SW-620.
Assay [19] deals with U-251.
Assay [20] relates to UO-31.

Regarding `O=C1NC2c3c(I)sc(I)c3C(=O)C2O1` (stereo not given), the GI50 was 3.05 µM (inactive) in [1]; 2.67 µM (inactive) in assay [2]; 14 µM (inactive) in assay [3]; 2.58 µM (inactive) in assay [4]; 2.08 µM in assay [5]; 13.5 µM (inactive) in [6]. In addition, the GI50 in assay [7] is 2.93 µM (inactive); in assay [8], 11.6 µM (inactive); in assay [9], 4.58 µM (inactive); in assay [10], 4.45 µM (inactive); in assay [11] it was 2.96 µM (inactive); in [12] it was 5.27 µM (inactive). For the same compound, the GI50 is 13.9 µM (inactive) in [13]; 1.56 µM (inactive) in [14]; 9.35 µM (inactive) in assay [15]; 6.9 µM (inactive) in assay [16]; 2.46 µM (inactive) in assay [17]; 2.82 µM (inactive) in assay [18]. The GI50 was 6.78 µM (inactive) in assay [19] and 3.82 µM (inactive) in [20].
`Nc1ccc([As](=O)(O)O)cc1` [ARSANILIC ACID]: the GI50 in assay [1] was > 100 µM (inactive); in [2] it was > 100 µM (inactive); in assay [3] it was > 100 µM (inactive); in [4] it was > 100 µM (inactive); in [5] it was above 100 µM; in assay [6] it was > 100 µM (inactive). The GI50 in [7], in [8], in assay [9], in assay [10], in assay [11] and in [12] was > 100 µM (inactive) each time. Further, the GI50 in assay [13], in [14], in assay [15], in assay [16], in [17] and in assay [18] was > 100 µM (inactive) in each case. Besides, the GI50 in assay [19] and in assay [20] was > 100 µM (inactive) each time.
